Results from PMC10587159, “Biosynthesis and engineering of the nonribosomal peptides with a C-terminal putrescine” (Nature Communications, 2023).
“Also recorded” adds a separate entry of the source. Residues, ends and D or L forms follow the SMILES beside them. *: point of attachment. Octanoyl = CCCCCCCC(=O)*; NH(CH2)4NH2 = NCCCCN*

Experiments:
[1] = system: human lung adenocarcinoma cell A549; test: MTT cytotoxicity assay, A549; type: cell-based; conditions: 24 h
Summary of the method: (§1)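 Cytotoxicity in Kasumi, HepG-2, SGC-7901 and normal lung epithelial 2B cells, among other human tumour lines, was measured by MTT assay.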

[2] = system: human breast adenocarcinoma cells MDA-MB-231; test: cells; type: cell-based; conditions: 24 h
Summary of the method: as §1

[3] = system: human hepatoma cell HepG-2; test: cells; type: cell-based; conditions: 24 h
Summary of the method: (§2)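 Cytotoxicity against the listed human lines (Kasumi leukemia, HepG-2 hepatoma, SGC-7901 gastric, normal lung epithelial 2B) measured by MTT assay following a previously described protocol. Cell identity checked regularly by morphology and gene/protein expression.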

[4] = system: human lung epithelial normal cell 2B; test: cells; type: cell-based; conditions: 24 h
Summary of the method: as §2

[5] = system: human ovarian cancer cell line SKOV3; test: cells; type: cell-based; conditions: 24 h
Summary of the method: (§3)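 MTT read-out of viability; cancer lines plus normal 2B epithelial cells. Lines authenticated by morphology, gene/protein expression.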

tumor lines = test: MTT cytotoxicity assay, statements on the whole panel; type: cell-based, human
Summary of the method: as §3

RAW 264.7 cells = test: NO production in LPS-induced RAW264.7 cells (Griess method), anti-inflammatory; type: cell-based; conditions: compounds 0-80 μM for 30 min, then co-treatment with LPS 24 h; Griess reagents, OD 540 nm
Description: The two human acute lymphoblastic leukemia cells K562 and Kasumi, two human breast adenocarcinoma cells MCF7 and MDA-MB-231, human hepatoma cell HepG-2, human lung adenocarcinoma cell A549, human gastric cancer cell SGC-7901, human colon cancer cell HCT-116, human ovarian cancer cell line SKOV3, or human lung epithelial normal cell 2B were obtained from Beyotime Biotechnology and utilized to test the cytotoxicity of compounds by MTT assays as previous study. The anti-inflammatory effect of the compounds was detected by the influence on the increase in the level of nitric oxide caused by lipopolysaccharide (LPS) based on the classic Griess method. RAW 264.7 cells (Shanghai Institutes for Biological Science) were seeded in 96-well plates and incubated for 24 h. Then, cells were treated with compounds 29, 29a, 31, and 31a (0-80 μM) for 30 min, followed by co-treatment with LPS ([…]) for another 24 h. The Nitric Oxide assay kit with Griess reagents (Beyotime, Lot: S0021, Shanghai, China) was used to examine cellular supernatant nitrite accumulation, which represents cellular NO levels. The OD value of 540 nm absorbance was detected with a microplate reader. […]
We measured NO production to test the anti-inflammatory activity of compounds […]
cellular NO levels. The OD value of 540 nm absorbance was detected with a microplate […]

IC50 [2]: 168.9 ± 1.05 µM | IC50 [3]: 136.2 ± 0.15 µM | IC50 [5]: 241.4 ± 0.07 µM
SMILES: CCCCCCCC(=O)N[C@H](C(=O)N[C@@H](Cc1ccccc1)C(=O)N[C@@H](CCC(=O)O)C(=O)N[C@H](C(=O)N[C@@H](C)C(=O)NCCCCN)[C@@H](C)CC)C(C)C [Compound 31] (Octanoyl-VFEIA-{NH(CH2)4NH2}; N-terminus assumed)
IC50 [1]: 198.3 ± 1.25 µM | IC50 [4]: 42.6 ± 1.25 µM | IC50 (tumor lines; 24 h): > 40 µM | cytotoxic / antitumor activity in words (tumor lines; MTT assay, panel of tumor cell lines): higher anti-inflammatory and antitumor activities than 29a and 31a | anti-inflammatory activity (NO production in LPS-induced RAW264.7 cells) in words (RAW 264.7 cells): higher anti-inflammatory and antitumor activities than 29a and 31a; also recorded: moderate; also recorded: suppressed moderately the release
